ChEMBL document CHEMBL4052639, “2-Isocyano glucose used in Ugi four-component reaction: An approach to enhance inhibitory effect against DNA oxidation” (Eur J Med Chem, 2017)
The source made the active and inactive calls. The rule behind the calls is not given here.

Assays:
Type in all cases: functional
[1] = Antioxidant activity assessed as reduction in AAPH-induced DNA oxidation up to 400 uM measured every 2 hrs by TBARS assay
[2] = Antioxidant activity assessed as reduction in Cu2+/GSH-induced DNA oxidation by measuring TBARS level at 400 uM after 90 mins relative to control; set-up: scale not given: the % may be the effect or the level left
[3] = Antioxidant activity assessed as reduction in hydroxyl radical-induced DNA oxidation by measuring TBARS level at 400 uM after 90 mins relative to control; set-up: scale not given: the % may be the effect or the level left

For O=C(O)c1cc(O)c(O)c(O)c1, which Activity [1] is on record?
Its Activity is “Active”.

For O=C(CN(C(=O)c1cc(O)c(O)c(O)c1)c1ccccc1)N[C@@H]1[C@@H](O)[C@H](O)[C@@H](CO)O[C@H]1O, which Activity [2] is on record?
Its Activity is 90.1%.

And the Activity [1]?
Its Activity is “Active”.

What about the Activity [3] of the same compound?
The Activity was 92.7%.

With O=C(CN(C(=O)c1ccc(O)cc1)c1ccc(O)cc1)N[C@@H]1[C@@H](O)[C@H](O)[C@@H](CO)O[C@H]1O as the compound, how does the Activity [2] read?
Its Activity is 95%.

What about the Activity [1] of the same compound?
Its Activity is “Active”.

And the Activity [3]?
Its Activity is 94.9%.

Which Activity [2] does the source give for O=C(CN(C(=O)c1ccc(O)cc1)c1ccccc1)N[C@@H]1[C@@H](O)[C@H](O)[C@@H](CO)O[C@H]1O here?
Its Activity is 97.8%.

And the Activity [1]?
The Activity was “Active”.

And the Activity [3]?
Its Activity is 96.5%.

For COc1cc(/C=C/C(=O)O)ccc1O, which Activity [1] is on record?
Its Activity is “Active”.

For O=C(O)/C=C/c1ccc(O)c(O)c1, which Activity [1] is on record?
The Activity was “Active”.

Which results are given for O=C(CN(C(=O)c1cc(O)c(O)c(O)c1)c1ccccc1)NCCc1c[nH]c2ccccc12?
Activity [2]: 96.2%; Activity [1]: Active; Activity [3]: 93.8%

For O=C(CN(C(=O)c1cc(O)c(O)c(O)c1)c1ccccc1)NC12CC3CC(CC(C3)C1)C2, which Activity [2] is on record?
Its Activity is 93.6%.

And the Activity [1]?
The Activity was “Active”.

What about the Activity [3] of the same compound?
Its Activity is 95.6%.

Which results are given for O=C(CN(C(=O)c1cc(O)c(O)c(O)c1)c1ccccc1)NC1CCCCC1?
Activity [2]: 97.1%; Activity [1]: Active; Activity [3]: 97.1%

Which Activity [2] does the source give for O=C(CN(C(=O)c1ccccc1)c1ccccc1)N[C@@H]1[C@@H](O)[C@H](O)[C@@H](CO)O[C@H]1O here?
Its Activity is 99.3%.

What about the Activity [1] of the same compound?
The Activity was “inactive”.

What about the Activity [3] of the same compound?
Its Activity is 100%.

Which results are given for O=C(CN(Cc1ccccc1)C(=O)/C=C/c1ccc(O)c(O)c1)N[C@@H]1[C@@H](O)[C@H](O)[C@@H](CO)O[C@H]1O?
Activity [2]: 94.6%; Activity [1]: Active; Activity [3]: 93.7%

Which Activity [2] does the source give for O=C(CN(C(=O)c1cc(O)c(O)c(O)c1)c1ccc(O)cc1)N[C@@H]1[C@@H](O)[C@H](O)[C@@H](CO)O[C@H]1O here?
The Activity was 91%.

What about the Activity [1] of the same compound?
The Activity was “Active”.

What about the Activity [3] of the same compound?
Its Activity is 91.8%.

Which Activity [2] does the source give for O=C(CN(C(=O)c1ccccc1)c1ccc(O)cc1)N[C@@H]1[C@@H](O)[C@H](O)[C@@H](CO)O[C@H]1O here?
Its Activity is 96.7%.

What about the Activity [1] of the same compound?
Its Activity is “Active”.

And the Activity [3]?
Its Activity is 98.3%.

What does the source list for COc1cc(/C=C/C(=O)N(CC(=O)N[C@@H]2[C@@H](O)[C@H](O)[C@@H](CO)O[C@H]2O)Cc2ccccc2)ccc1O?
Activity [2]: 92.8%; Activity [1]: Active; Activity [3]: 94.7%

For O=C(O)c1ccc(O)cc1, which Activity [1] is on record?
The Activity was “Active”.
